pEC50, pIC50, pKi: −log10 of the molar value.
Columns and labels:
[1] = Volume of distribution at steady state in dog at 0.3 mg/kg, iv via infusion for 0.5 hrs; format: ADME, organism-based, Canis lupus familiaris; settings: in vivo, read-out: Vdss
[2] = molecular target: Type-1 angiotensin II receptor (Homo sapiens) (UniProt P30556); assay: Agonist activity at recombinant human AT1 receptor expressed in HEK293 cells assessed as increase in calcium flux at 10 uM by spectrophotometric method relative to control; format: functional, cell-based
[3] = molecular target: D(1A) dopamine receptor (Homo sapiens) (UniProt P21728); assay: Displacement of [3H]SCH 23390 from recombinant human D1 receptor at 10 uM after 60 mins by scintillation counting method
Rattus norvegicus [4] = species: Rattus norvegicus; assay: Displacement of [3H]diltiazem from L-type calcium channel diltiazem binding site in rat brain at 10 uM after 120 mins by scintillation counting method
[5] = molecular target: 5-hydroxytryptamine receptor 1B (Homo sapiens, UniProt P28222); assay: Agonist activity at human 5-HT1B receptor expressed in HeLa cells assessed as increase in cAMP accumulation measured after 20 mins by HTRF method; format: functional, cell-based
[6] = Renal clearance in dog at 0.3 mg/kg, iv via infusion for 0.5 hrs; format: ADME, organism-based, Canis lupus familiaris, Kidney; settings: in vivo
Homo sapiens = species: Homo sapiens; assay: Inhibition of neuronal type nAChR (unknown origin) at 10 uM by radioligand binding assay relative to control
[7] = Clearance in dog plasma at 0.3 mg/kg, iv via infusion for 0.5 hrs; format: ADME, organism-based, Canis lupus familiaris
[8] = Intrinsic clearance in rat hepatocytes assessed per million cells; format: ADME, cell-based, Hepatocyte; settings: read-out: CLH
[9] = Inhibition of sodium channel site2 (unknown origin) by radioligand binding assay relative to control; design: species or system Homo sapiens
Cytochrome P450 1A2 = Cytochrome P450 1A2 (Homo sapiens, UniProt P05177); assay: Inhibition of CYP1A2 (unknown origin); format: ADME
[10] = molecular target: Vasopressin V1a receptor (Homo sapiens) (UniProt P37288); assay: Agonist activity at human V1A receptor expressed in CHOK1 cells assessed as increase in calcium flux at 10 uM by fluorimetric method relative to control; format: functional, cell-based
Cytochrome P450 2C8 = Cytochrome P450 2C8 (Homo sapiens, UniProt P10632); assay: Inhibition of CYP2C8 (unknown origin); format: ADME
[11] = molecular target: Sodium channel protein type 1 subunit alpha (Homo sapiens, UniProt P35498); assay: Inhibition of human Nav1.1 expressed in HEK cells by patch clamp electrophysiology method; format: cell-based
[12] = Intrinsic clearance in mouse hepatocytes assessed per million cells; format: ADME, cell-based, Hepatocyte; settings: read-out: CLH
[13] = molecular target: Sodium-dependent noradrenaline transporter (Homo sapiens, UniProt P23975); assay: Displacement of [3H]nisoxetine from recombinant human norepinephrine transporter at 10 uM after 120 min by scintillation counting method
[14] = molecular target: Cannabinoid receptor 1 (Homo sapiens) (UniProt P21554); assay: Displacement of [3H]CP 55940 from recombinant human CB1 receptor at 10 uM after 120 mins by scintillation counting method
[15] = Permeability in RRCK cells; format: ADME, cell-based, Canis lupus familiaris, MDCKII-LE; settings: dog, MDCK; read-out: permeability
[16] = Solubility of the compound in aqueous buffer at pH 7.1; format: physicochemical
[17] = molecular target: Glutamate NMDA receptor (Rattus norvegicus) (UniProt P35439+Q00959+Q00960+Q00961+Q62645+Q8VHN2+Q9R1M7); assay: Displacement of [3H]CGP 39653 from rat brain NMDA receptor at 10 uM after 60 mins by scintillation counting method
[18] = molecular target: Sodium channel protein type 11 subunit alpha (Homo sapiens, UniProt Q9UI33); assay: Inhibition of human Nav1.9 expressed in HEK cells by automated patchXpress electrophysiology method; format: cell-based
[19] = molecular target: Sodium channel protein type 2 subunit alpha (Homo sapiens, UniProt Q99250); assay: Inhibition of human Nav1.2 expressed in HEK cells by patch clamp electrophysiology method; format: cell-based
[20] = molecular target: Beta-2 adrenergic receptor (Homo sapiens) (UniProt P07550); assay: Displacement of [3H](-)CGP12177 from recombinant human beta2 receptor at 10 uM after 120 mins by scintillation counting method
[21] = Clearance in rat plasma at 0.3 mg/kg, iv via infusion for 1 hr; format: ADME, organism-based
[22] = molecular target: Cholecystokinin receptor type A (Homo sapiens) (UniProt P32238); assay: Agonist activity at recombinant human CCK1 receptor expressed in CHOK1 cells assessed as increase in cAMP accumulation at 10 uM after 30 mins by HTRF assay relative to control
Cytochrome P450 2C19 = Cytochrome P450 2C19 (Homo sapiens, UniProt P33261); assay: Inhibition of CYP2C19 (unknown origin); format: ADME
[23] = molecular target: Epidermal growth factor receptor (Homo sapiens) (UniProt P00533); assay: Displacement of [125I] EGF from EGFR in human A431 cells at 10 uM after 60 mins by scintillation counting method; format: cell-based
[24] = molecular target: Endothelin-1 receptor (Homo sapiens) (UniProt P25101); assay: Agonist activity at human ETA receptor expressed in SK-N-MC cells assessed as increase in calcium flux at 10 uM by fluorimetric method relative to control; format: functional, cell-based
[25] = molecular target: D(2) dopamine receptor (Homo sapiens) (UniProt P14416); assay: Antagonist activity at recombinant human D2S receptor expressed in HEK293 cells assessed as inhibition of dopamine-induced cell impedance at 10 uM by cellular dielectric spectroscopic method relative to control; format: cell-based
[26] = Half-life in rat at 0.3 mg/kg, iv via infusion for 1 hr; format: ADME, organism-based; settings: in vivo
[27] = molecular target: Sodium-dependent dopamine transporter (Homo sapiens, UniProt Q01959); assay: Displacement of [3H]BTCP from recombinant human dopamine transporter at 10 uM after 120 mins by scintillation counting method
Rattus norvegicus [28] = species: Rattus norvegicus; assay: Displacement of [3H]AMPA from rat brain AMPA receptor at 10 uM after 60 mins by scintillation counting method
Cytochrome P450 3A4 = Cytochrome P450 3A4 (Homo sapiens, UniProt P08684); assay: Inhibition of CYP3A4 (unknown origin); format: ADME
[29] = molecular target: Mu-type opioid receptor (Homo sapiens) (UniProt P35372); assay: Displacement of [3H]DAMGO from recombinant human MOR at 10 uM after 120 mins by scintillation counting method
Rattus norvegicus [30] = species: Rattus norvegicus; assay: Displacement of [3H]D888 from L-type calcium channel verapamil binding site in rat brain at 10 uM measured after 120 mins by scintillation counting method
Adenosine receptor A1 = Adenosine receptor A1 (Homo sapiens, UniProt P30542); assay: Agonist activity at recombinant human adenosine A1 receptor expressed in mouse BA/F3 cells assessed as increase in calcium flux by spectrophotometric method; format: functional, cell-based
[31] = molecular target: Peroxisome proliferator-activated receptor gamma (Homo sapiens) (UniProt P37231); assay: Displacement of [3H]rosiglitazone from recombinant human PPARgamma at 10 uM after 120 mins by scintillation counting method
[32] = Lipophilicity, log D of the compound at pH 7.4; format: physicochemical; settings: buffer
[33] = molecular target: Adenosine receptor A1 (Homo sapiens) (UniProt P30542); assay: Agonist activity at recombinant human adenosine A1 receptor expressed in mouse BA/F3 cells assessed as increase in calcium flux at 10 uM by spectrophotometric method relative to control; format: functional, cell-based

Chain of Sodium-dependent dopamine transporter (Q01959 whole entry): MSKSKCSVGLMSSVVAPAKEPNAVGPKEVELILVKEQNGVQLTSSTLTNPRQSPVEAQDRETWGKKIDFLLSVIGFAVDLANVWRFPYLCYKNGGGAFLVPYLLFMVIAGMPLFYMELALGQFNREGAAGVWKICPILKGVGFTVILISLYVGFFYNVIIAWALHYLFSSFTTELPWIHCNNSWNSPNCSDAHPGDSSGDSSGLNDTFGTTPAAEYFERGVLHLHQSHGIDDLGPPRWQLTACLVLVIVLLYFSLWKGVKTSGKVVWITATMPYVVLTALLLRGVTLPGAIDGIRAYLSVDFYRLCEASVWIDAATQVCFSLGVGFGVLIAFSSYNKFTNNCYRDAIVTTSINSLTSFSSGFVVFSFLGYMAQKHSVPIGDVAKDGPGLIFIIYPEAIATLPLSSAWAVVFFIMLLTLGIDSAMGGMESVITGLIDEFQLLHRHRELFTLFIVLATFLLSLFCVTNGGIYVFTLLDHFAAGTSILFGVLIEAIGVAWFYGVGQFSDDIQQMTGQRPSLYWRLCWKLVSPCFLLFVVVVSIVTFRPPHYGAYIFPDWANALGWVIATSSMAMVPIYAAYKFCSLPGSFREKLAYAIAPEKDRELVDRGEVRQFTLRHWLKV
Chain of Type-1 angiotensin II receptor (Homo sapiens) (P30556 whole entry): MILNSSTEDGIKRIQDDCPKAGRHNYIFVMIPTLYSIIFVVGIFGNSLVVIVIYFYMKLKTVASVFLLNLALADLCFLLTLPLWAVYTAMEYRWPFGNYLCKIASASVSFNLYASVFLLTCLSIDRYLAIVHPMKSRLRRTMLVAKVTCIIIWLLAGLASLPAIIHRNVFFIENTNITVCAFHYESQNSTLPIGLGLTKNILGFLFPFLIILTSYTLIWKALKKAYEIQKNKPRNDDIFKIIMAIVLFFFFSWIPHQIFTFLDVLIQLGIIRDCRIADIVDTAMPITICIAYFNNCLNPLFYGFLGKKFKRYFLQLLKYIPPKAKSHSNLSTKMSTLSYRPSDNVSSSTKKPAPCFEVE
Chain of Cytochrome P450 1A2 (P05177 whole entry): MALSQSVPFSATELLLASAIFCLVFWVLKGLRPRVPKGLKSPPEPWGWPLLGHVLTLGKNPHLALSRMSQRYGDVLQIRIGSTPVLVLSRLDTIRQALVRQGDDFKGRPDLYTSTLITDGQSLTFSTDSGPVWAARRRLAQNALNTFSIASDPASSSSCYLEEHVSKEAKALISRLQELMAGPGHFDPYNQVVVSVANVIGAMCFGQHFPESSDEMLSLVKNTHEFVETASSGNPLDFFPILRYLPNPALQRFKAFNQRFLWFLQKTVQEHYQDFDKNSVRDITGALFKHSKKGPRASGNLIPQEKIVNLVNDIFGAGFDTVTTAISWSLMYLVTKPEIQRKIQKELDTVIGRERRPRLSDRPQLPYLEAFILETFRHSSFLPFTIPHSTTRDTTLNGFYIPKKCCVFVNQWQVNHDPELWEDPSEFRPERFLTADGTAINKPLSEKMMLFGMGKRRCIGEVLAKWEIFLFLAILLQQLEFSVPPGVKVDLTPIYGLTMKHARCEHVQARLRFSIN
Chain of Peroxisome proliferator-activated receptor gamma (Homo sapiens) (P37231 whole entry): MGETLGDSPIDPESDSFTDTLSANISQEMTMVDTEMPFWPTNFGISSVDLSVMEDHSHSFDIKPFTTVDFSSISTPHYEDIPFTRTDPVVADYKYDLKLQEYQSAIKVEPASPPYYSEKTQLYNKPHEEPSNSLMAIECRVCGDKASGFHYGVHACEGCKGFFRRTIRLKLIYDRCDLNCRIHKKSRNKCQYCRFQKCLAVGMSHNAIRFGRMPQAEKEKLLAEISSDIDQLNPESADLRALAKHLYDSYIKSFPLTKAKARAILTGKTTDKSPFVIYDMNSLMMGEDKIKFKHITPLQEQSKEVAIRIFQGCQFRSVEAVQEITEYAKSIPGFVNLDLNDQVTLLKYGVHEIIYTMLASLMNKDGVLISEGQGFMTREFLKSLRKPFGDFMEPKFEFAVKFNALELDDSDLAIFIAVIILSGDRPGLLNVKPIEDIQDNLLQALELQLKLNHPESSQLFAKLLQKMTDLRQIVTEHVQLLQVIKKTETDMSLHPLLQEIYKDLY
Chain of Sodium channel protein type 2 subunit alpha (Q99250 whole entry): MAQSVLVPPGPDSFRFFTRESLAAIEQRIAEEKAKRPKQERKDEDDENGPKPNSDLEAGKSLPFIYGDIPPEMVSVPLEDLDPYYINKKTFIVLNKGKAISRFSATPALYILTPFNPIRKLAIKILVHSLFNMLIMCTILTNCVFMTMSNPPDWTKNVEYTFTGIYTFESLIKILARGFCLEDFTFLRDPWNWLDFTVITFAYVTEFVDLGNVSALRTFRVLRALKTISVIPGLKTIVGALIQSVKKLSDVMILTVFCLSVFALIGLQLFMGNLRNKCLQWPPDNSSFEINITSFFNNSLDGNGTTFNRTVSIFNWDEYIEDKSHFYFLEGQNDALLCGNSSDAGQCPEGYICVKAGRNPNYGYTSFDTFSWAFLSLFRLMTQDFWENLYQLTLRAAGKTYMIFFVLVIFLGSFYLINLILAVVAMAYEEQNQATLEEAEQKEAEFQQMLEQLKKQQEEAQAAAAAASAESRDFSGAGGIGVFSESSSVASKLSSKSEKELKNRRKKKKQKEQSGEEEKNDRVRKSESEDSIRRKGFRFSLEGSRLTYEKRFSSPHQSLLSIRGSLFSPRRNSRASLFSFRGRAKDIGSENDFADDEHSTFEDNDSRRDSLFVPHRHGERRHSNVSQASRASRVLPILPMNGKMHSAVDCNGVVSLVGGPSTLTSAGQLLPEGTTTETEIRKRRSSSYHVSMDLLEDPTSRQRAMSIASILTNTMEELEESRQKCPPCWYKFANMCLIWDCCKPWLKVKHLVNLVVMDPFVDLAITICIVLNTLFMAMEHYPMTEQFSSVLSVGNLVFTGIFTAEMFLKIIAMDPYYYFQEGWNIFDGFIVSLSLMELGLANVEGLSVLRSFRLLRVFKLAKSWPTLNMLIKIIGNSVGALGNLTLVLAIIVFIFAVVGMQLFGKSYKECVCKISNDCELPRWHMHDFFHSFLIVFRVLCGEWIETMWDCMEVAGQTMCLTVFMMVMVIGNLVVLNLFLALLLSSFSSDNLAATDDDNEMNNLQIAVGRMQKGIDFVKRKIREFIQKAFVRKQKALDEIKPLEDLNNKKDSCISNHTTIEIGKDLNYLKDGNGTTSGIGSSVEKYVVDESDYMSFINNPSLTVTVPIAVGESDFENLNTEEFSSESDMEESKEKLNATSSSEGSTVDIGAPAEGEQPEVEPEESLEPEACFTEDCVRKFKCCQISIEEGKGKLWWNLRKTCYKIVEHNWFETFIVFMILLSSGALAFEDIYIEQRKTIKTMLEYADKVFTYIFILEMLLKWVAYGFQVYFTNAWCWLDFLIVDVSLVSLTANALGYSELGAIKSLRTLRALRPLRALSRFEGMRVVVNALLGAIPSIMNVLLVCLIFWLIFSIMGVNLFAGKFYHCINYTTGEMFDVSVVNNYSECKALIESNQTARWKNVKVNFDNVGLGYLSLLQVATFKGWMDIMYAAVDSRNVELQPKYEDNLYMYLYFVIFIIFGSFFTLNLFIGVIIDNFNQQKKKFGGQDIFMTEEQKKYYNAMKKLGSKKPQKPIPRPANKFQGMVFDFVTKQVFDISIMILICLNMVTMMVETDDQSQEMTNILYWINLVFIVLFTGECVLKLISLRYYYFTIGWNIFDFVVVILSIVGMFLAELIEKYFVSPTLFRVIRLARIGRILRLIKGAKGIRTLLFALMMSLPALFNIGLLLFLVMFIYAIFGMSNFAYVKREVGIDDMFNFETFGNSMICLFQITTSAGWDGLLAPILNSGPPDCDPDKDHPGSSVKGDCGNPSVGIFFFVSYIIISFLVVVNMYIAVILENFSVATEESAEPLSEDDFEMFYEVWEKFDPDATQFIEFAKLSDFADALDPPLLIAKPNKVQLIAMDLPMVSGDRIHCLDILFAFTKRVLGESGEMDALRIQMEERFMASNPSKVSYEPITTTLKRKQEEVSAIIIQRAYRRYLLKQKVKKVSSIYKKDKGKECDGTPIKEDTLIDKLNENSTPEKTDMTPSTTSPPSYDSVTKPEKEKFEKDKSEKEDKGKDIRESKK
Chain of Mu-type opioid receptor (Homo sapiens) (P35372 whole entry): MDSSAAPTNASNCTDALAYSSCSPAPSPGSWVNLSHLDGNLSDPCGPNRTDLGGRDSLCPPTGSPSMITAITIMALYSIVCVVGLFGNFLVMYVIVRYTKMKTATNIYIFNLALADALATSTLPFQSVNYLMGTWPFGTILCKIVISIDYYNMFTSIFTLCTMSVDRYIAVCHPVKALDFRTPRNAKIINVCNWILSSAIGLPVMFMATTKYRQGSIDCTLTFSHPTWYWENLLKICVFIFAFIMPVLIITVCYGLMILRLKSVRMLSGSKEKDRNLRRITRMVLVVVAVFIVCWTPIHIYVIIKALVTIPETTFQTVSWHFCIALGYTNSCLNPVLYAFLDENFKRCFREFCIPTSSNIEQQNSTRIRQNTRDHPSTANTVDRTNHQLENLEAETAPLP
Chain of Beta-2 adrenergic receptor (Homo sapiens) (P07550 whole entry, looked up, the tested form may be a part): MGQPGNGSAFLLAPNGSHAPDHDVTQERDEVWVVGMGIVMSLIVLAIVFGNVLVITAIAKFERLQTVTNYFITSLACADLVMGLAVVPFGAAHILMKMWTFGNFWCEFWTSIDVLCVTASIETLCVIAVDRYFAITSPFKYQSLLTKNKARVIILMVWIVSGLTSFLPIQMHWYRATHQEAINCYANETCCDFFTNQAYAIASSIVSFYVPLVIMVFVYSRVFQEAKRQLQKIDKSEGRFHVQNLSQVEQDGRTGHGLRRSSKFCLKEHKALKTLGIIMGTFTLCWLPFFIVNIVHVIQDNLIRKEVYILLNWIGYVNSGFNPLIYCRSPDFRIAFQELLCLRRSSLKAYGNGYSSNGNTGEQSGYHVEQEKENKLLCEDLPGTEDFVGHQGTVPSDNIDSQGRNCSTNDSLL

N#Cc1cc(S(=O)(=O)Nc2ncns2)ccc1Oc1ccc(-c2cccc(C(F)(F)F)c2)cc1-c1ccnc(CNCCC2CCNCC2)c1
Vd [1]: 0.46 L/kg
Activity [2]: -3%
inhibition [3]: 60%
inhibition (Rattus norvegicus [4]): 40%
pEC50 [5]: < 5.00
CL renal at 0.5 h [6]: 0.0012 mL/min/kg
inhibition (Homo sapiens): 34%
clearance [7]: 17.8 mL/min/kg
hepatocyte CLint [8]: < 6 µL/min/1e6 cells
pIC50 [9]: 7.32
pKi [9]: 7.37
pIC50 (Cytochrome P450 1A2): < 4.52
Activity [10]: -4%
pIC50 (Cytochrome P450 2C8): 5.21
pIC50 [11]: 6.50 to 6.51
hepatocyte CLint [12]: < 3 µL/min/1e6 cells
inhibition [13]: 80%
inhibition [14]: 21%
Papp [15]: 0.62 ×10⁻⁶ cm/s
solubility [16]: > 2570 µg/mL
inhibition [17]: 21%
pIC50 [18]: < 5.00
pIC50 [19]: 8.52 to 8.60
inhibition [20]: 4%
clearance [21]: 83.1 mL/min/kg
Activity [22]: 4%
pIC50 (Cytochrome P450 2C19): 5.88
inhibition [23]: 35%
Activity [24]: 8%
inhibition [25]: 31%
half-life [26]: 12.6 min
inhibition [27]: 84%
inhibition (Rattus norvegicus [28]): -1%
pIC50 (Cytochrome P450 3A4): 5.94
inhibition [29]: 46%
inhibition (Rattus norvegicus [30]): 35%
pEC50 (Adenosine receptor A1): 5.84
inhibition [31]: 33.4%
logD [32]: 2.37 to 2.4
Activity [33]: 107%

From ChEMBL document CHEMBL4177603 (Bioorg Med Chem Lett, 2017)
